Data set [1] deals with hERG potassium channels (Homo sapiens, UniProt Q12809). Briefly: hERG potassium channel block, electrophysiology (IonWorks Quattro), CHO cells. For orientation: The hERG channel carries a current that helps repolarise heart muscle cells.
Protocol: Ability to block hERG potassium channels was determined using the electrophysiological method and cloned hERG potassium channels (KCNH2 gene, expressed in CHO cells) as biological material. The effects were evaluated using IonWorks™ Quattro system (MDS-AT).
hERG current was elicited using a pulse pattern with fixed amplitudes (conditioning prepulse: −80 mV for 25 ms; test pulse: +40 mV for 80 ms) from a holding potential of 0 mV. hERG current was measured as a difference between the peak current at 1 ms after the test step to +40 mV and the steady-state current at the end of the step to +40 mV.
Data acquisition and analyses was performed using the IonWorks Quattro™ system operation software (version 2.0.2; Molecular Devices Corporation, Union City, Calif.). Data were corrected for leak current.
Data set [2] concerns the target T1, histaminergic receptor (Cavia porcellus, UniProt P31389).
T1 construct: Terminal ileum was dissected and placed into a Krebs solution; from tissue; host or cells: guinea-pig terminal ileum segments (organ bath)
The data set can be described thus: Guinea-pig ileum test, antagonism of histamine contraction. Conditions: antagonistic activity towards histaminergic receptor, agonist histamine, read-out: H ant** (pKb) (converted). As for the experimental part:
Ileum was prepared from male guinea-pigs with 300-350 g of body weight, fasted for 24 h before experiment with free access to drinking water. Terminal ileum was dissected and placed into a Krebs solution (NaCl 120 mM, KCl 5.6 mM, MgCl2 2.2 mM, CaCl2 2.4 mM, NaHCO3 19 mM, glucose 10 mM) and 2 cm-long fragments were cut. Each segment of the gut was placed in 30 ml chamber filled with the Krebs solution at 37 C, pH 7.4, with constant oxygenation (O2/CO2, 19:1), fixed by the lower end to a glass rod and by the upper end to the force-displacement transducer FDT 10-A (Biopac Systems, COMMAT, Ltd., Turkey). The preparation was allowed to stabilize in organ baths for 60 min under a resting tension of 0.5 g, washing every 15 min with fresh Krebs solution. All responses were recorded using software Biopac Systems Inc MP-35 Data Acquisition, Turkey.
In next step, stock solutions were diluted 10× in water.
The equilibration period a cumulative concentration-response curve was constructed in so each tissue for respective agonist—carbachol (3×10^−9−3×10^−6 M) or histamine (10^−8-10^−5 M) by the method of van Rossum (Ref. 24). Following the first agonist curve, tissues were incubated with one of the concentrations of tested compounds for 15 min and the next cumulative concentration curve to agonist was obtained. Only one concentration of the antagonist was tested in each piece of tissue. Experiments were repeated three to eight times.
After the equilibration period a cumulative concentration-response curve was constructed in each tissue for histamine (10^−8-10^−5 M) by the method of van Rossum. Following the first histamine curve, tissues were incubated with one of the concentrations of tested compounds for 15 min and the next cumulative concentration curve to histamine was obtained. Only one concentration of the antagonist was tested in each piece of tissue. Experiments were repeated three to seven times.
Concentration-response curves were analysed using GraphPad Prism 4.0 (GraphPad Software Inc., San Diego, Calif., USA). […]

Data set [3] concerns mice. The data set can be described thus: d-Amphetamine-induced locomotor hyperactivity in mice. Conditions: for MED*: minimum effective dose, d-amphetamine-induced locomotor hyperactivity, i.p.
Protocol: (§1) All the experiments were performed by two observers unaware of the treatment applied between 9:00 and 14:00 on separate groups of animals. All animals were used only once and were killed immediately after the experiment.
The locomotor activity was recorded with an Opto M3 multi-channel activity monitor (MultiDevice Software v. 1.3, Columbus Instruments). The mice were individually placed in plastic cages (22×12×13 cm) for 30 minutes habituation period, and then the crossings of each channel (ambulation) were counted during 1 h with data recording every 5 minutes. The cages were cleaned up with 70% ethanol after each mouse. Drugs were administered to 10 mice per treatment group. d-Amphetamine was administered 30 minutes before the test.
(§2) An injection volume of 10 ml/kg (mice) or 2 ml/kg (rats) was used throughout and all compounds were administered intraperitoneally (i.p.), except d-amphetamine that was given subcutaneously (s.c.).
All the data are expressed as the mean±SEM. The statistical significance of effects was evaluated using separate one-way analysis of variance (ANOVA) with comparison between individual groups by Dunnett's test (when only one drug was given) or by the Tukey's test when two drugs were used; p<0.05, p<0.01 and p<0.001 were considered statistically significant. ED50 values were calculated using Graph Pad Prism 5 Software.
Data set [4] has as its system Wistar rats. The data set can be described thus: Conditioned avoidance response (CAR) in rats.
Protocol: as §2
Rats trained to avoid the foot shock were placed in the experimental chambers for a 3 min. habituation period followed by 50 CAR trials presented on a 15-s variable interval (VI) schedule. Each trial consisted of a 10 s warning tone and stimulus light (conditioned stimulus) followed by 10 s electric shock (0.5 mA). If during the initial 10 s of the trial an animal crossed through the sliding door, the tone and light were terminated, no shock was applied, and the response was considered as “an avoidance response”. If the animal crossed through the sliding door after a foot shock was initiated, the response was considered as an escape response. […] If a response was made during an intertrial interval, it was punished with 0.5 s shock (0.5 mA). […] On test days, a tested drug was administered i.p. 60 minutes before the start of the test session. Each drug was tested at 3-4 different doses in the same group of eight animals. A 7-day wash-out period was introduced between the subsequent tests. […]
Avoidances, escapes, and “none” responses were analyzed with the aid of a one-way analysis of variance (ANOVA). […]
The test system of data set [5] is Wistar rats. Briefly: Elevated plus maze test in rats.
Protocol: as §1
Floor of the plus-maze was made of infrared transparent material what means that there are no visible sensors. The plus-maze was placed in a darkened room, and the center of the apparatus was illuminated with a 25 W electric bulb hanging 100 cm above. Plus-maze apparatus was connected to PC software by control chassis. Each rat was gently placed in the center of the plus-maze, facing one of the closed arms, immediately after a 5-min adaptation period in a plastic black box (60×60×35 cm). During a 5-minutes test period, automated Motor Monitor System recorded the number of entries into the closed and open arms, the time spent in and the distance (cm) covered by a rat in either type of the arms. After each trial the maze was wiped clean. All compounds were administered to 5-8 rats per treatment group.
In data set [6] the test system is Swiss mice. Briefly: Four-plate test in Swiss mice. The data set is classed as in vivo.
Data set [7] concerns Wistar rats. The data set can be described thus: 2,5-Dimethoxy-4-iodoamphetamine (DOI)-induced head twitches in rats.
Description: (§3) Drug-naive male Wistar rats (Charles River, Sulzfeld, Germany) weighing 250-400 g were used in all experiments. Rats were housed two per standard plastic cage and kept in a room with constant environmental conditions (21-22′C, relative humidity 60%, a 12:12 light-dark cycle with lights on at 7:00 a.m.). Animals were supplied by the breeder two weeks before the onset of behavioral procedures. During this time, the subjects were weighed and handled several times. Tap water and standard lab chow (Labofeed H, WPIK, Kcynia, Poland) was available ad libitum.
as §2
All tests were carried out in a sound-attenuated experimental room between 9:00 a.m. and 3:00 p.m. as described above for spontaneous head twitches. […] Rats were pre-injected i.p. with a test drug 60 min. before the start of the test session. […] Five minutes later, head twitches were counted for 5 minutes. (300 s) by a trained observer.
Total numbers of head twitches (n/5 min.) were analyzed by means of the Kruskal-Wallis analysis of variance (ANOVA). The Mann-Whitney U test was used for individual post hoc comparisons.
For data set [8], the system named is C57BL/6J mice. The data set can be described thus: Tail suspension test in C57BL/6J mice. The data set is classed as in vivo.
Data set [9] deals with mice. The data set can be described thus: MK-801-induced locomotor hyperactivity in mice.
Protocol: as §1
The locomotor activity was recorded with an Opto M3 multi-channel activity monitor (MultiDevice Software v. 1.3, Columbus Instruments). The mice were individually placed in plastic cages (22×12×13 cm) for 30 minutes habituation period, and then the crossings of each channel (ambulation) were counted during 1 h with data recording every 5 minutes. The cages were cleaned up with 70% ethanol after each mouse.
The locomotor activity was recorded according to method described above.
as §2
All the data are expressed as the mean±SEM. The statistical significance of effects was evaluated using separate one-way analysis of variance (ANOVA) with comparison between individual groups by Dunnett's test (when only one drug was given) or by the Tukey's test when two drugs were used; p<0.05, p<0.01 and p<0.001 were considered statistically significant.
In data set [10] the test system is Wistar rats. The data set can be described thus: MK-801-induced stereotyped behaviour in rats. Conditions: MK-801-induced stereotyped behaviour (glutamate-related psychosis model).
Description: as §3, §2
All tests were carried out in a sound-attenuated experimental room between 9:00 a.m. and 3:00 p.m. Within 24 h prior to testing, rats were habituated to glass observation cages (25×25×40 cm, W×H×L) with wood chip bedding on the floor for 20 min. […] Views of other rats in the experiment were prohibited. Fifteen minutes later, the time spent circling/head waving was recorded by a trained observer for 5 min. […] Rats were pre-injected with a test drug 60 min. before the start of the observation period.
The duration of stereotyped circling was analyzed with the aid of the Kruskal-Wallis analysis of variance (ANOVA). […]
In data set [11] the test system is Wistar rats. The data set can be described thus: Amphetamine-induced PPI deficits in rats.
Description: as §3, §2
The PPI apparatus consisted of eight startle chambers (SR-LAB, San Diego Instruments, San Diego, Calif., USA). […] Startle responses, reflecting the motion of animals in the cylinder so following the acoustic stimulus, were detected by a piezoelectric transducer mounted below the frame. […]
This interval was randomized by the SR-LAB software. Startle responses were measured for 100 ms after the onset of the last trial stimulus. […]
Startle responses (in manufacturer's arbitrary units), and magnitudes of PPI (%) were analyzed with the aid of a one-way analysis of variance (ANOVA). […]
In data set [12] the test system is Wistar rats. The data set can be described thus: Conflict drinking test (Vogel test) in rats. The data set is classed as in vivo. The source says:
Recording data started immediately after the first lick and every 20 licks rats were punished with an electric shock (0.5 mA, lasting 1 s). […] If a rat was drinking when an impulse was released, it received a shock.

The test system of data set [13] is Wistar rats. The data set can be described thus: Apomorphine-induced stereotyped behaviour in rats.
Description: as §3, §2
All tests were carried out in a sound-attenuated experimental room between 9:00 a.m. and 3:00 p.m. Within 24 h prior to testing, rats were habituated to glass observation so cages (25×25×40 cm, W×H×L) with wood chip bedding on the floor for 20 min. […] Rats were injected with apomorphine (0.6 mg/kg) and placed in the observation cages. […] Twenty minutes later, the time spent licking/biting and sniffing downward was recorded by a trained observer for 5 minutes (300 s). […]
The duration of stereotyped sniffing and licking/biting was analyzed with the aid of the Kruskal-Wallis analysis of variance (ANOVA). […]
Data set [14] has as its system Wistar rats. The data set can be described thus: Passive avoidance procedure in rats. Conditions: passive-avoidance (model of memory disturbance).
Description: as §3
Potentially impairing effects of test substance on learning and memory function in rats were evaluated using a step-through passive avoidance (PA) test. […]
In the training session (acquisition), animals were placed in the lighted compartment and allowed to explore it freely for 10 s. The sliding door was then opened, and the step-through latency for a rat to enter the dark compartment was measured. […]
The test (expression) session was performed 24 h after the training session. […] A step-through latency for animals to enter the dark compartment was measured with a cut-off of 300 s.
Weights and step-trough latencies were analyzed with the aid of a one-way analysis of variance (ANOVA). […]
The test system of data set [15] is Wistar rats. Briefly: Forced swimming test (Porsolt's test) in rats. Format: in vivo.
Description: as §3, §2
The animals were individually subjected to two experimental trials during which they were forced to swim in a cylinder (40 cm high, 18 cm in diameter) filled with warm water (25° C.) to a height of 15 cm. A video camera was mounted 50 cm above the cylinder. The first (habituation) and second (test) trial lasted 15 and 5 minutes, respectively. There was a 24-h interval between the trials. The total duration of immobility was measured during the second trial by a trained observer located in a separate room.
Weights and time of immobility were analyzed with the aid of a one-way analysis of variance (ANOVA). […]
Data set [16] deals with serotoninergic 5-HT2C receptor (Homo sapiens, UniProt P28335). Briefly: Cellular functional assay, serotoninergic 5-HT2C receptor (agonism/antagonism). The data set is classed as cell-based. Particulars: agonist effect, percent of control specific agonist response; 1×10^−6M. As to the method:
The compounds were tested at the concentration of 1×10^−6M.
In the Tables ag refers to agonism, and antag to antagonism).

[17] abbreviates: % block of hERG current, cloned hERG channels in CHO cells, IonWorks Quattro.

Like-named read-outs stand apart in the source and are kept apart here. Marks after values point to notes of the source that are not given here. A value given as a limit tells only on which side of the number the result lay.

Chain of hERG potassium channels (Q12809 whole entry): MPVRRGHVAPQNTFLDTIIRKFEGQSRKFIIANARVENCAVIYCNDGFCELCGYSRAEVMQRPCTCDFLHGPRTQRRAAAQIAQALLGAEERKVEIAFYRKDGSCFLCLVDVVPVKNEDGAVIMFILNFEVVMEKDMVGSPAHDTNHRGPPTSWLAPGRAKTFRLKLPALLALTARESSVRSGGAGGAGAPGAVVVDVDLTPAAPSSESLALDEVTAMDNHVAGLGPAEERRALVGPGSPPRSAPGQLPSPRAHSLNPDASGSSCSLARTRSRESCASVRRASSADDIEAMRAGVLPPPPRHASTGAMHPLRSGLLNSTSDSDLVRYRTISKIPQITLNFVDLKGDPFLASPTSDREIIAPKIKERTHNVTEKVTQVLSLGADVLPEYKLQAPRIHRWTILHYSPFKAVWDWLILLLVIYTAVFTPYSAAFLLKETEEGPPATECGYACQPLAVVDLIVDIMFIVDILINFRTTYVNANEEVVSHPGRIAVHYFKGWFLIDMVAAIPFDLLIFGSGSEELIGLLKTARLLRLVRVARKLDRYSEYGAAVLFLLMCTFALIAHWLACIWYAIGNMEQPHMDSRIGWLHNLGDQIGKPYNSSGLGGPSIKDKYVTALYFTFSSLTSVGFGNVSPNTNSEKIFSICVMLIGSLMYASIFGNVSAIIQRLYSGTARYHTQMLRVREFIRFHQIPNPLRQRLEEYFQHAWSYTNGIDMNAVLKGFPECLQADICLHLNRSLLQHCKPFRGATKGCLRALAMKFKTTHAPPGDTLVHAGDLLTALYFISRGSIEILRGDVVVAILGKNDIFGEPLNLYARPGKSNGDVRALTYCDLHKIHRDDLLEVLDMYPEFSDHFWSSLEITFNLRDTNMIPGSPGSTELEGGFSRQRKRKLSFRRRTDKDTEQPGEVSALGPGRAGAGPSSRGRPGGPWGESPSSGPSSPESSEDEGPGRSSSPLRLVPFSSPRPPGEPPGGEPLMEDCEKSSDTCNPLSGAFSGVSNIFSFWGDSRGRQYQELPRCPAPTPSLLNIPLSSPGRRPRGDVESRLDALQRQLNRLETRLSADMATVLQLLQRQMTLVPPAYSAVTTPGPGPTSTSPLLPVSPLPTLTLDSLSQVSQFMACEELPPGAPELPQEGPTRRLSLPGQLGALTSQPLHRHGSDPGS
T1 sequence (P31389 whole entry): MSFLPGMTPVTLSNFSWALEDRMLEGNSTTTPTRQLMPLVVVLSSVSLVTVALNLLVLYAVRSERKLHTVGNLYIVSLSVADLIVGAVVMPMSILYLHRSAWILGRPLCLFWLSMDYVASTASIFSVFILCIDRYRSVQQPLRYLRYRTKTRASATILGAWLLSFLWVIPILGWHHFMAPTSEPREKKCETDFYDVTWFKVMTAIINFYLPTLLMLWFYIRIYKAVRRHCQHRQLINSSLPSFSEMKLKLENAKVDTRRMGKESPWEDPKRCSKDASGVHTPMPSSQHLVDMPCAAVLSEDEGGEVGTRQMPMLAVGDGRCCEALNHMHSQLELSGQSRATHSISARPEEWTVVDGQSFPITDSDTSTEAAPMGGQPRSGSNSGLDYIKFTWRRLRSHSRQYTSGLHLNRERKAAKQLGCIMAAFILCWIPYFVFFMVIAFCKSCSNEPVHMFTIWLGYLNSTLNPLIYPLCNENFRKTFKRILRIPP
Chain of serotoninergic 5-HT2C receptor (P28335 33-458): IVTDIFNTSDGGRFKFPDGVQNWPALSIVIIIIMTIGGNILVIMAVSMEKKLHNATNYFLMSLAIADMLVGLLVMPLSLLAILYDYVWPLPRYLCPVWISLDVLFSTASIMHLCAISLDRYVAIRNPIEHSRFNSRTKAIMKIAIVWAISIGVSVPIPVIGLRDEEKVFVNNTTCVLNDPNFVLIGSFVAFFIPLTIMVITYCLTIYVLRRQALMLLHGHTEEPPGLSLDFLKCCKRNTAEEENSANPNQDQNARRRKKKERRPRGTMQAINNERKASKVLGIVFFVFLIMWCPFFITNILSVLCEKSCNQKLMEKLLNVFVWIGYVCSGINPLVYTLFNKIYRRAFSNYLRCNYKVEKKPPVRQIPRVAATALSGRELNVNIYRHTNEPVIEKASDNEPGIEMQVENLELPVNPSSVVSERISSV

Consider `O=S(=O)(NCCCCN1CCN(c2nsc3ccccc23)CC1)c1cccc2ccccc12` [Compound 1, N-(4-(4-(1,2-Benzothiazol-3-yl)piperazin-1-yl)butyl)naphthalene-1-sulphonamide], for which the “hERG [%]” value in data set [1] (setting [17]) came out at 16%. For the same compound, the Kb in data set [2] is 498 nM.
As to `O=S(=O)(NCCCCN1CCN(c2nsc3ccccc23)CC1)c1ccc2ccccc2c1` [Compound 2, N-(4-(4-(1,2-Benzothiazol-3-yl)piperazin-1-yl)butyl)naphthalene-2-sulphonamide], the “hERG [%]” value in [1] worked out at 14%. Besides, the “MED*” value in data set [3] is 5 mg/kg. Also, in data set [2], the Kb was 457 nM.
For `Cc1cccc(S(=O)(=O)NCCCCN2CCN(c3nsc4ccccc34)CC2)c1` [Compound 3, N-(4-(4-(1,2-Benzothiazol-3-yl)piperazin-1-yl)butyl)-3-methylbenzenesulphonamide], in data set [1], the “hERG [%]” value turned out to be 17%. Besides, the Kb in [2] is 148 nM.
Consider `Cc1cccc(S(=O)(=O)NCCCN2CCN(c3nsc4ccccc34)CC2)c1` [Compound 7, N-(3-(4-(1,2-Benzothiazol-3-yl)piperazin-1-yl)propyl)-3-methylbenzenesulphonamide], for which the “hERG [%]” value in data set [1] (setting [17]) is 14%. Further, in [3], the “MED*” value was 2 mg/kg.
Regarding `O=S(=O)(NCCCCN1CCN(c2noc3ccccc23)CC1)c1ccc2ccccc2c1` [Compound 14, N-(4-(4-(1,2-Benzoxazol-3-yl)piperazin-1-yl)butyl)naphthalene-2-sulphonamide], the “hERG [%]” value in data set [1] (setting [17]) is −1.4%.
`O=S(=O)(NCCCCN1CCC(c2noc3cc(F)ccc23)CC1)c1ccc2ccccc2c1` [Compound 18, N-[4-[4-(6-Fluoro-1,2-benzoxazol-3-yl)piperidin-1-yl]butyl]naphthalene-2-sulphonamide]: in data set [1] (setting [17]), the “hERG [%]” value came to 30%. Moreover, in data set [3], the “MED*” value is 2.5 mg/kg.
As to `Cc1cccc(S(=O)(=O)NCCCN2CCC(c3noc4cc(F)ccc34)CC2)c1` [Compound 22, N-[3-[4-(6-Fluoro-1,2-benzoxazol-3-yl)piperidin-1-yl]propyl]-3-methylbenzenesulphonamide], the “hERG [%]” value in data set [1] (setting [17]) was determined as 52%. For the same compound, the “activity in active avoidance response” value in data set [4] is listed as “active”. In addition, the “MED” value came to 3 mg/kg in [4] (active-avoidance response (model of positive symptoms of schizophrenia)); 0.312 mg/kg in [6] (four-plate test in mice); 0.156 mg/kg in data set [8] (tail suspension test in C57BL/6J mice); 3 mg/kg in [10]; 30 mg/kg in data set [11] (prepulse inhibition disruption caused by amphetamine administration); 3 mg/kg in [12] (Vogel test (potential anxiolytic activity)). Moreover, the results for the “MED” value in data set [13] (apomorphine-induced stereotyped behaviour (dopamine-related psychosis model)), in [14] and in [15] (Porsolt forced swim test (potential antidepressant activity)) were 10 mg/kg, over 30 mg/kg and 0.3 mg/kg, respectively. In data set [3], the “activity in d-amphetamine induced hyperlocomotion” value is listed as “active”. Moreover, the “MED*” value in data set [3] came out at 2.5 mg/kg; in data set [9] (minimum effective dose, MK-801-induced locomotor hyperactivity, i.p.), 1.25 mg/kg. The “activity in elevated plus maze” value in [5] (anxiolytic model) is on record as “active”. The “MED [mg/kg]” value was ≤ 0.3 * mg/kg in [5] (elevated plus-maze (potential anxiolytic activity)) and ≤ 1 * mg/kg in data set [7] (DOI-induced head twitches (serotonin-related psychosis model)). Further, the “activity in four plates test in mice” value in data set [6] (mice, anxiolytic model) was “active”. For the same compound, in data set [7], the “activity in stereotyped behavior induced by DOI” value was “active”. For the same compound, in [8] (mice, antidepressant model), the “activity in tail suspension test in mice” value is “active”. In addition, the “activity in MK-801 induced hyperlocomotion” value in [9] is “active”. The “activity in reversal of deficits in prepulse inhibition in rats” value in [11] is “active”. Besides, the “activity in conflict drinking test (Vogel) in rats” value in data set [12] (anxiolytic model) was “active”. In addition, the “activity in stereotyped behavior induced by apomorphine” value in data set [13] is given as “active”. For the same compound, the “activity in forced swim test (Porsolt) in rats” value in data set [15] (antidepressant model) is “active”.
As for `O=S(=O)(NCCCCN1CCN(c2cccc3[nH]ccc23)CC1)c1cnc2ccccn12` [Compound 30, N-{4-[4-(1H-Indol-4-yl)piperazin-1-yl]butyl}-imidazo[1,2-a]pyridine-3-sulphonamide], in data set [1] (setting [17]), the “hERG [%]” value is −3%.
Still for that read-out and setting: in the case of `O=S(=O)(NCCCCN1CCN(c2nsc3ccccc23)CC1)c1ccc2cc(Cl)ccc2c1` [Compound 61, N-[4-[4-(1,2-Benzothiazol-3-yl)piperazin-1-yl]butyl]-6-chloro-naphthalene-2-sulphonamide] it was 12%.
`Cc1c(S(=O)(=O)NCCCCN2CCN(c3nsc4ccccc34)CC2)sc2ccc(F)cc12` [Compound 65, N-[4-[4-(1,2-Benzothiazol-3-yl)piperazin-1-yl]butyl]-5-fluoro-3-methylbenzothiophene-2-sulphonamide]: the “5-HT2C -ag [%]” value in data set [16] is recorded as 0%.
Turning to `O=S(=O)(NCCCCN1CCC(c2noc3cc(F)ccc23)CC1)c1ccc2cc(Cl)ccc2c1` [Compound 97, 6-Chloro-N-[4-[4-(6-fluoro-1,2-benzoxazol-3-yl)piperidin-1-yl]butyl]naphthalene-2-sulphonamide], the “MED*” value in data set [3] is reported as 2.5 mg/kg.
Take `Cc1c(S(=O)(=O)NCCCCN2CCC(c3noc4cc(F)ccc34)CC2)sc2ccc(F)cc12` [Compound 101, 5-Fluoro-N-[4-[4-(6-fluoro-1,2-benzoxazol-3-yl)piperidin-1-yl]butyl]-3-methylbenzothiophene-2-sulphonamide]: the “hERG [%]” value in [1] (setting [17]) amounted to 14%.
Turning to `O=S(=O)(NCCCCN1CCN(c2cccc3[nH]ccc23)CC1)c1cccc(Cl)c1` [Compound 113, N-[4-[4-(1H-Indol-4-yl)piperazin-1-yl]butyl]-3-chlorobenzenesulphonamide], the “hERG [%]” value in data set [1] (setting [17]) worked out at 16%.
As to `O=S(=O)(NCCCCN1CCN(c2nsc3ccccc23)CC1)c1cc2ccc(Cl)cc2s1` [Compound 241, N-[4-[4-(1,2-Benzothiazol-3-yl)piperazin-1-yl]butyl]-6-chlorobenzothiophene-2-sulphonamide], the “5-HT2C -ag [%]” value in data set [16] is given as −4%.
With `O=S(=O)(NCCCN1CCC(c2noc3cc(F)ccc23)CC1)c1ccc(F)c(Cl)c1` [Compound 331, 3-Chloro-4-fluoro-N-[3-[4-(6-fluoro-1,2-benzoxazol-3-yl)piperidin-1-yl]propyl]benzenesulphonamide], the “hERG [%]” value in [1] (setting [17]) is listed as 32%.
`N#Cc1cccc(S(=O)(=O)NCCCN2CCC(c3noc4cc(F)ccc34)CC2)c1` [Compound 338, 3-cyano-N-[3-[4-(6-fluoro-1,2-benzoxazol-3-yl)piperidin-1-yl]propyl]benzenesulphonamide]: in data set [1] (setting [17]), the “hERG [%]” value came out at 40.5%.
For the compound `O=S(=O)(NCCCCN1CCN(c2cccc3[nH]ccc23)CC1)c1ccc2cc(Cl)ccc2c1` [Compound 358, 6-Chloro-N-[4-[4-(1H-indol-4-yl)piperazin-1-yl]butyl]naphthalene-2-sulphonamide], in data set [1] (setting [17]), the “hERG [%]” value was 0%.
Same read-out and setting: in the case of `O=S(=O)(NCCCCN1CCN(c2cccc3[nH]ccc23)CC1)c1ccc(F)cc1` [Compound 359, 4-Fluoro-N-[4-[4-(1H-indol-4-yl)piperazin-1-yl]butyl]benzenesulphonamide] it was 9%; in that of `O=S(=O)(NCCCCN1CCN(c2cccc3[nH]ccc23)CC1)c1cc2ccc(Cl)cc2s1` [Compound 363, 6-Chloro-N-[4-[4-(1H-indol-4-yl)piperazin-1-yl]butyl]benzothiophene-2-sulphonamide], 0%.

The record behind these values is patent US8822517B2, “Arylosulfonamides for the treatment of CNS diseases” (Adamed SP. Z O.O., priority 2010, dated 2014).
